Results on 62 compounds are retold here after US12612413B2, “Heteroaryl compounds as inhibitors of programmed necrosis pathway, composition and method using the same” (ACCRO BIOSCIENCE INC., priority 2020, dated 2026).

Broadly, the EC50 is the concentration needed to bring the measured effect to its halfway point. A higher EC50 goes with a need for much substance.

Where a name gives a salt, the structure may show the parent alone.

The first assay concerns MEF cells. The experiment in a line: MEF cell viability (necroptosis) assay. In kind it is cell-based. The conditions noted are these: Mus musculus, TNF-α (40 ng/mL), Smac mimetic (100 nM), z-VAD (20 μM), 12 h. The protocol:
(§1) MEF cells were added to 96-well plate. The compounds at different concentrations (0.3, 1.0, 3.0, 10.0, 20.0 μM) were then preprocessed for two hours. TNF-α (40 ng/mL), Smac mimetic (100 nM) and z-VAD (20 μM) were added, and the mixture was incubated for 12 h. Quantitative analysis of cell survival was conducted. DMSO pretreatment group was used as a negative control. Concentration for 50% of maximal effect was calculated according to the curve of the survival rate measured at different concentrations. FIG. 2 depicts the EC50 curves of compound A9.
`Cn1ccc(C2=CS(=O)(=O)c3cc4c(Nc5ccc6scnc6c5)ccnc4cc32)n1` [Compound A33] returned an EC50 of 380 nM.

For the next assay, the system named is HT-29 cells. Kind of assay: HT-29 cell viability (necroptosis) assay. In kind it is cell-based. The conditions noted are these: Homo sapiens, TNF-α (40 ng/mL), Smac mimetic (100 nM), z-VAD (20 μM), 40 h, from survival rate curve. The protocol: as §1, with “Human colon cancer HT-29 cells were used in a necroptosis assay. For this assay, HT-29 cells” for “MEF cells”, “96-well plates.” for “96-well plate.”, “for 40” for “for 12”, “cell viability” for “cell survival”, “FIG. 1” for “FIG. 2”, “compound A16.” for “compound A9.”
For the compound `Cn1ccc(C2=CS(=O)(=O)c3cc4c(Nc5ccc6scnc6c5)ccnc4cc32)n1` [Compound A33], the concentration for a half-maximal effect (EC50) amounted to 350 nM. The same measure, in the same setting: next, `O=C1CS(=O)(=O)c2cc3c(Nc4ccc5scnc5c4)ccnc3cc21` [Compound B3, 8-(benzo[d]thiazol-5-ylamino)thieno[2,3-g]quinolin-3(2H)-one 1,1-dioxide hydrochloride]: 3240 nM; `CC(C)C1=Cc2cc3nccc(Nc4ccc5scnc5c4)c3cc2S1(=O)=O` [Compound A5]: 760 nM. On to `Cc1ccc(O)cc1Nc1ccnc2cc3c(cc12)S(=O)(=O)C(C)(C)C3=O` [Compound B13], for which the EC50 was found to be 520 nM. With `Cc1cc(C2=CS(=O)(=O)c3cc4c(Nc5ccc6scnc6c5)ccnc4cc32)n(C)n1` [Compound A32], the EC50 is 1200 nM.

The compound `O=S1(=O)C=C(C2CC2)c2cc3nccc(Nc4ccc5cn[nH]c5c4)c3cc21` [Compound A91] returned an EC50 of 160 nM.

As for `Cc1ccc(O)cc1Nc1ccnc2cc3c(cc12)S(=O)(=O)C=C3C1CC1` [Compound A95], it took 300 nM to reach a half-maximal effect (EC50). The same measure, in the same setting: the value for `Cc1[nH]nc(Nc2ccnc3cc4c(cc23)S(=O)(=O)C=C4C2CC2)c1C` [Compound A96] was 590 nM; that for `N#Cc1ccc(C2=CS(=O)(=O)c3cc4c(Nc5ccc6scnc6c5)ccnc4cc32)cc1` [Compound A25] was 300 nM; that for `CC1=Cc2cc3nccc(Nc4ccc(O)c(C#N)c4)c3cc2S1(=O)=O` [Compound A58] was 3950 nM. Still for that read-out and setting: next, `CC1=CS(=O)(=O)c2cc3c(Nc4cc(O)c(F)cc4F)ccnc3cc21` [Compound A83]: 1000 nM; `O=S1(=O)C=C(NCCO)c2cc3nccc(Nc4ccc5scnc5c4)c3cc21` [Compound A18]: 310 nM; `CC1=Cc2cc3nccc(Nc4cc(O)ccc4F)c3cc2S1(=O)=O` [Compound A52]: 260 nM. On the same count and under the same terms, the value for `COc1c2c(cc3c(Nc4ccc5scnc5c4)ccnc13)S(=O)(=O)C=C2` [Compound A108] was 630 nM.

`NCCOC1=CS(=O)(=O)c2cc3c(Nc4ccc5scnc5c4)ccnc3cc21` [Compound A110] yielded an EC50 of 2080 nM. The compound `O=S1(=O)C=C(OCCO)c2cc3nccc(Nc4ccc5scnc5c4)c3cc21` [Compound A16, 8-(benzo[d]thiazol-5-ylamino)-3-(2-hydroxyethoxy)thieno[2,3-g]quinoline 1,1-dioxide] displayed an EC50 of 1290 nM. This EC50 is about 1.6-fold lower than that of the compound before. Still for that read-out and setting: the value for `O=S1(=O)C=C(C2CC2)c2cc3nccc(Nc4cc(O)c(Cl)cc4F)c3cc21` [Compound A101] was 400 nM; that for `COc1ccc(C2=CS(=O)(=O)c3cc4c(Nc5ccc6scnc6c5)ccnc4cc32)cc1` [Compound A23] was 1040 nM. Compound `O=S1(=O)C=C(C2CC2)c2cc3nccc(Nc4ccn5ccnc5c4)c3cc21` [Compound A104] showed a concentration for a half-maximal effect (EC50) of 12000 nM. In turn, `O=S1(=O)C=C(C2CC2)c2cc3nccc(Nc4cc(O)ccc4F)c3cc21` [Compound A89] had an EC50 of 220 nM. For the compound `O=S1(=O)C=C(c2ccc(O)cc2)c2cc3nccc(Nc4ccc5scnc5c4)c3cc21` [Compound A24], the EC50 turned out to be 500 nM.

`O=S1(=O)C=C(C2CC2)c2cc3nccc(Nc4ccc5nn[nH]c5c4)c3cc21` [Compound A92] registered an EC50 of 420 nM. With `O=S1(=O)C=C(O[C@H]2CCOC2)c2cc3nccc(Nc4ccc5scnc5c4)c3cc21` [Compound A117], a half-maximal response (EC50) required 390 nM.

Compound `CC1=Cc2cc3nccc(Nc4n[nH]c5ccc(F)cc45)c3cc2S1(=O)=O` [Compound A36] returned an EC50 of 5790 nM. Still for that read-out and setting: next, `O=S1(=O)C=C(OC2CCOC2)c2cc3nccc(Nc4ccc5scnc5c4)c3cc21` (stereo not drawn) [Compound A115]: 280 nM; `Cn1cc(C2=CS(=O)(=O)c3cc4c(Nc5ccc6scnc6c5)ccnc4cc32)cn1` [Compound A31]: 1030 nM. For the compound `O=S1(=O)C=C(c2cccnc2)c2cc3nccc(Nc4ccc5scnc5c4)c3cc21` [Compound A27], the midpoint of the response, the EC50, lay at 490 nM.

As for `CN1CCC(OC2=CS(=O)(=O)c3cc4c(Nc5ccc6scnc6c5)ccnc4cc32)C1` (stereo not drawn) [Compound A114], the EC50 turned out to be 310 nM. Still for that read-out and setting: the value for `CCC1=CS(=O)(=O)c2cc3c(Nc4ccc5scnc5c4)ccnc3cc21` [Compound A10] was 1380 nM.

The assay is the same for the next values; noted with them: Homo sapiens, compound at 20 μM, TNF-α (40 ng/mL), Smac mimetic (100 nM), z-VAD (20 μM), 40 h, read-out: HT-29(20 μM) Survival.
For the compound `CC1=Cc2cc3nccc(Nc4cc(CN)ccc4C)c3cc2S1(=O)=O` [Compound A50, 8-((5-(aminomethyl)-2-methylphenyl)amino)-2-methylthieno[2,3-g]quinoline 1,1-dioxide], the viability at 20 µM came out at 17.9%.

As to `CC1=Cc2cc3nccc(Nc4ccc5[nH]nnc5c4)c3cc2S1(=O)=O` [Compound A39], the viability at 20 µM stood at 63.5%. The same measure, in the same setting: next, `CC1=Cc2cc3nccc(Nc4ccc5c(c4)C(=O)NCC5)c3cc2S1(=O)=O` [Compound A43]: 48.8%. For the compound `CC1=CS(=O)(=O)c2cc3c(Nc4cc(O)ccc4F)ccnc3cc21` [Compound A79], the viability at 20 µM worked out at 39.4%. The same measure, in the same setting: next, `CC1=Cc2cc3nccc(Nc4ccn5ncnc5c4)c3cc2S1(=O)=O` [Compound A69]: 10.5%. Same read-out and setting: next, `CC(=O)Nc1ccc(C)c(Nc2ccnc3cc4c(cc23)S(=O)(=O)C(C)=C4)c1` [Compound A48]: 7.8%. On the same count and under the same terms, the value for `CC1=Cc2cc3nccc(Nc4n[nH]c(C)c4C)c3cc2S1(=O)=O` [Compound A38] was 37.6%; that for `CC1=C(C)S(=O)(=O)c2cc3c(Nc4cc(N)ccc4C)ccnc3cc21` [Compound A87] was 15.5%; that for `CC1(C)C(O)(C2CC2)c2cc3nccc(Nc4ccc5scnc5c4)c3cc2S1(=O)=O` (stereo not drawn) [Compound B11] was 26.2%. Consider `Cc1n[nH]c(Nc2ccnc3cc4c(cc23)S(=O)(=O)C(C)(C)C4=O)c1C` [Compound B18], for which the viability at 20 µM came out at 22.7%. On the same count and under the same terms, the value for `CC1=CS(=O)(=O)c2cc3c(Nc4ccc(O)cc4F)ccnc3cc21` [Compound A81] was 28.8%. For the compound `CC1=Cc2cc3nccc(Nc4ccc(O)c(Br)c4)c3cc2S1(=O)=O` [Compound A56], the viability at 20 µM came to 23.2%. Turning to `CNCCOC1=CS(=O)(=O)c2cc3c(Nc4ccc5scnc5c4)ccnc3cc21` [Compound A111], the viability at 20 µM was found to be 42%. Still for that read-out and setting: the value for `CC1=Cc2cc3nccc(Nc4ccc5nc[nH]c5c4)c3cc2S1(=O)=O` [Compound A40] was 5.8%; that for `CC1=CS(=O)(=O)c2cc3c(Nc4n[nH]c(C)c4C)ccnc3cc21` [Compound A75] was 32.3%.

For `O=S1(=O)CC(c2ccccc2)c2cc3nccc(Nc4ccc5scnc5c4)c3cc21` (stereo not drawn) [Compound B23], the viability at 20 µM turned out to be 12.7%. Same read-out and setting: the value for `O=S1(=O)C=Cc2cc3nccc(Nc4ccc5scnc5c4)c3c(O)c21` [Compound A109] was 25%.

For `CC1(C)C(=O)c2c(cc3c(Nc4ccc5scnc5c4)ccnc3c2C2CC2)S1(=O)=O` [Compound B12, 8-(benzo[d]thiazol-5-ylamino)-4-cyclopropyl-2,2-dimethylthieno[2,3-g]quinolin-3(2H)-one 1,1-dioxide], the viability at 20 µM worked out at 10.3%. Consider `O=S1(=O)c2cc3c(Nc4ccc5scnc5c4)ccnc3cc2OCC12CCC2` [Compound B26], for which the viability at 20 µM was 72.6%. Same read-out and setting: the value for `CC1=CS(=O)(=O)c2cc3c(Nc4cc(O)cc(C(F)(F)F)c4)ccnc3cc21` [Compound A82] was 11%; that for `N#Cc1cccc(Nc2ccnc3cc4c(cc23)S(=O)(=O)C=C4C2CC2)c1` [Compound A97] was 22.5%; that for `CC1=Cc2cc3nccc(Nc4cc(F)cc(F)n4)c3cc2S1(=O)=O` [Compound A70] was 16.5%. In the case of `CC1=Cc2cc3nccc(Nc4cncc(N)c4)c3cc2S1(=O)=O` [Compound A64], the viability at 20 µM stood at 20.2%. Turning to `O=C1c2cc3nccc(Nc4ccc5scnc5c4)c3cc2S(=O)(=O)C12CC=CC2` [Compound B22], the viability at 20 µM is 23.5%. For `CC1=Cc2cc3nccc(Nc4ccc5c(c4)CN(C)CC5)c3cc2S1(=O)=O` [Compound A42], the viability at 20 µM was found to be 23.1%.

`CC1=Cc2cc3nccc(Nc4ccc(O)c(C(F)(F)F)c4)c3cc2S1(=O)=O` [Compound A57]: the viability at 20 µM turned out to be 15.3%.

`N#Cc1cc(O)cc(Nc2ccnc3cc4c(cc23)S(=O)(=O)C=C4C2CC2)c1` [Compound A99]: the viability at 20 µM is 72.7%.

Take `O=S1(=O)C=C(n2ccnc2)c2cc3nccc(Nc4ccc5scnc5c4)c3cc21` [Compound A34]: the viability at 20 µM was 15.5%.

`CC1=CS(=O)(=O)c2cc3c(Nc4cc(N)ccc4C)ccnc3cc21` [Compound A78]: the viability at 20 µM is 10.5%. Same read-out and setting: next, `CC1(C)C(=O)c2cc3nccc(Nc4ccc(O)c(C#N)c4)c3cc2S1(=O)=O` [Compound B17]: 22.8%; `COc1ccc(C)c(Nc2ccnc3cc4c(cc23)S(=O)(=O)C(C)=C4)c1` [Compound A47]: 17.5%. Consider `CC1=CS(=O)(=O)c2cc3c(Nc4ccc5cn[nH]c5c4)ccnc3cc21` [Compound A72], for which the viability at 20 µM worked out at 40.7%. On the same count and under the same terms, next, `O=C1c2c(cc3c(Nc4ccc5scnc5c4)ccnc3c2Cl)S(=O)(=O)C12CC=CC2` [Compound B21]: 4.9%.
